Article PMC11796354, “Autoinducer-2 enhances the defense of Vibrio furnissii against oxidative stress and DNA damage by modulation of c-di-GMP signaling via a two-component system” (mBio, 2025)

Target: AsrK (vfu_B00258)
Assay: ITC in borate-depleted buffer; also inhibits autokinase activity of purified full-length AsrK
Format: binding, Vibrio furnissii

## CC(=O)C(=O)[C@@H](O)CO [DPD, 4,5-dihydroxy-2,3-pentanedione]
  Kd: 38 ± 4 nM
